# Test system: skin
# Assay: 5 day cumulative irritation patch study
# Type: in vivo
# Description: To evaluate the skin irritation potential of cleansing products, a 5 day cumulative irritation patch study was conducted. Cumulative irritancy patch testing is a modified primary irritancy patch test that can detect weak irritants that require multiple applications to cause a skin reaction. These reactions are due to direct damage to the epidermal cells and no immunologic (allergic) mechanism is involved. The procedure used in the Examples is a modification of that described by Dr. B. M. Lanman at the Joint Conference on Cosmetic Sciences, Apr.
smiles,measurement,value
"CCCCCCCCCCCCOS(=O)(=O)[O-].[Na+] [0.25% SLS, sodium lauryl sulfate]",Irritancy Class,Moderately
same,Normalized Total Score,290.2

# Reference: patent US20230000753A1, “Encapsulated Cleansing Composition” (Henkel AG & Co. KGaA, priority 2020, published 2023)
